The target of this test is Mitotic checkpoint serine/threonine-protein kinase BUB1 (Homo sapiens, UniProt O43683). The experiment in a line: To this end, 100-fold concentrated compound solutions (in DMSO) were previously prepared by serial dilution (1:3.4) of 2 mM stocks in a clear low volume 384-well source microtiter plate (Greiner Bio-One, Frickenhausen, Germany), from which 50 nl of compounds were transferred into a black low volume test microtiter plate from the same supplier. […] The resulting mixture (5 μl final volume) was incubated at 22° C. during 60 min., and the reaction was stopped by the addition of 5 μl of an aqueous EDTA-solution (50 mM EDTA, in 100 mM HEPES pH 7.5 and 0.2% (w/v) bovine serum albumin) which also contained the TR-FRET detection reagents (0.2 μM streptavidin-XL665 [Cisbio Bioassays, Codolet, France] and 1 nM anti-phosho-Serine antibody [Merck Millipore, cat. #35-001] and 0.4 nM LANCE EU-W1024 labeled anti-mouse IgG antibody [Perkin-Elmer, product no. AD0077, alternatively a Terbium-cryptate-labeled anti-mouse IgG antibody from Cisbio Bioassays can be used]). The stopped reaction mixture was further incubated 1 h at 22° C. in order to allow the formation of complexes between peptides and detection reagents. Subsequently, the amount of product was evaluated by measurement of the resonance energy transfer from the Eu-chelate-antlbody complex recognizing the Phosphoserlne residue to the streptavidin-XL665 bound to the biotin moiety of the peptide. […] IC50 values were calculated by fitting the normalized inhibition data to a 4-parameter logistic equation (Minimum, Maximum, IC50, Hill; Y=Max+(Min−Max)/(1+(X/IC50)Hill)) using a Bayer-proprietary analysis software.
Mitotic checkpoint serine/threonine-protein kinase BUB1, sequence (O43683 whole entry): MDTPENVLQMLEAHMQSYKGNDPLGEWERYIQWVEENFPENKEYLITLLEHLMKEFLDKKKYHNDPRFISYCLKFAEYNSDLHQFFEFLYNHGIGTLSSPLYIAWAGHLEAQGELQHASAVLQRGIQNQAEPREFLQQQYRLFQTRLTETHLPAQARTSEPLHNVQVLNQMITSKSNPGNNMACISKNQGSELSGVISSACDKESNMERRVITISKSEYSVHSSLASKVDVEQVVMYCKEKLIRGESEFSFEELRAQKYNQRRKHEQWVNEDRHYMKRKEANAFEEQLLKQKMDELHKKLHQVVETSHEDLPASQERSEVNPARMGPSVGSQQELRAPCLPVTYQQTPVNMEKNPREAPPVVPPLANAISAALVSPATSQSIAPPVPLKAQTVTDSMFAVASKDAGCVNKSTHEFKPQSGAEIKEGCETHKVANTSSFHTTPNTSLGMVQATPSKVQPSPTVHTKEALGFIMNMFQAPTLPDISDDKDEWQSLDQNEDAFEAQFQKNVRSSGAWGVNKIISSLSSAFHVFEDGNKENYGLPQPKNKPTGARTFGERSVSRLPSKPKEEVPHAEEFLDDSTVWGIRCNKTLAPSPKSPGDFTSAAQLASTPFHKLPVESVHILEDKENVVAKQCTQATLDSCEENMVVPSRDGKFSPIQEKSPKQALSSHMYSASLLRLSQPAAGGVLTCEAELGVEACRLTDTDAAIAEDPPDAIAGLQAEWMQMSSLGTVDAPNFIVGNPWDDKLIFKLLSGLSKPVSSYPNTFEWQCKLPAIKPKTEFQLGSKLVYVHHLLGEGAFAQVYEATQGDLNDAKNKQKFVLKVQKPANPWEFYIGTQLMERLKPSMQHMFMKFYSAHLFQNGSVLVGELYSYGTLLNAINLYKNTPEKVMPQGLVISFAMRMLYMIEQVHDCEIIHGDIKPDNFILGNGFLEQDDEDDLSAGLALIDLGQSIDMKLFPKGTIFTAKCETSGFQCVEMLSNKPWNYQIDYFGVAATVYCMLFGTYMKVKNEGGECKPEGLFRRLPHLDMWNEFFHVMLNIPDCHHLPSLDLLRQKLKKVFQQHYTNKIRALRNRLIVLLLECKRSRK

Each structure is given as a SMILES string.

One may read the IC50 as the concentration that inhibits the measured activity by half.

With `CCOc1cc(F)c(Cn2nc(-c3ncc(OCCSC)c(Nc4ccncc4)n3)c3ccccc32)c(F)c1`, the IC50 is 14 nM.

As to `CCOc1cc(F)c(Cn2nc(-c3ncc(OCCOCCO)c(Nc4ccncc4)n3)c3ccccc32)c(F)c1`, the IC50 is 7.4 nM.

For `COc1cnc(-c2nn(Cc3c(F)cc(F)cc3F)c3ccccc23)nc1N(Cc1c(F)cc(F)cc1F)c1ccncc1`, the IC50 is 890 nM.

Turning to `COc1cnc(-c2nn(Cc3ccc(C#N)cc3F)c3ccccc23)nc1N(Cc1ccc(C#N)cc1F)c1ccncc1`, the IC50 is 1100 nM.

Take `COc1cnc(-c2nn(Cc3c(F)c(F)c(OCC(F)(F)F)c(F)c3F)c3ccccc23)nc1N(Cc1c(F)c(F)c(OCC(F)(F)F)c(F)c1F)c1ccncc1`: the IC50 was 3200 nM.

Values taken from ChEMBL document CHEMBL5726855, “Substituted benzylindazoles for use as Bub1 kinase inhibitors in the treatment of hyperproliferative diseases” (2019).
